Experimental data as given in patent US9708359B2, “Pyrrolopyrimidine nucleosides and analogs thereof” (Chimerix, Inc., priority 2015, dated 2017).
Where “and” joins values, the source holds several entries; their conditions need not be identical. Equal values may be shown once.

Test system: mouse norovirus
Test: Mouse Norovirus (MNV) assay in RAW cells
Settings: murine norovirus
[1] = Table 8, N/A = assayed but no EC50 value could be measured

| Structure (SMILES) | EC50 [1] | other results |
| --- | --- | --- |
| Cc1nc(N)c2c(C(=O)O)cn([C@@H]3O[C@H](COCc4ccccc4)[C@@H](O)[C@H]3O)c2n1 [Compound 33] | > 100 µM | – |
| COc1nc(C)nc2c1c(C#N)cn2[C@@H]1O[C@H](CO)[C@@H](O)[C@H]1O [Compound 30] | > 100 µM | – |
| Cc1ncc2c(C(=O)O)cn([C@@H]3O[C@H](CO)[C@@H](O)[C@H]3O)c2n1 [Compound 34] | > 100 µM | – |
| Cc1nc(N)c2c(C(N)=O)cn([C@@H]3O[C@H](COP(=O)(NCc4ccccc4)NCc4ccccc4)[C@@H](O)[C@H]3O)c2n1 [Compound 136] | 64.5 µM | – |
| Cc1nc(N)c2c(C(N)=O)cn([C@@H]3O[C@H](CN)[C@@H](O)[C@H]3O)c2n1 [Compound 108] | > 100 µM | – |
| Cc1nc(N)c2c(C(N)=O)cn([C@@H]3O[C@H](COP(=O)(N[C@@H](C)C(=O)OC(C)C)OCc4ccccc4C)[C@@H](O)[C@H]3O)c2n1 (some centres unmarked) [Compound 137] | – | EC50 (Table 7): 20 µM |
| COc1nc(C)nc2c1c(I)cn2[C@@H]1O[C@H](CO)[C@@H](O)[C@H]1O [Compound 42] | > 100 µM | – |
| CCCCCCCCCCCCCCCCOCCCOP(=O)(O)OC[C@H]1O[C@@H](n2cc(C(N)=O)c3c(N)nc(C)nc32)[C@H](O)[C@@H]1O [Compound 79] | > 100 µM | – |
| Cc1nc(N)c2c(C(N)=O)cn([C@H]3CCCO3)c2n1 [Compound 110] | > 100 µM | – |
| CCOP(=O)(CO[C@H](CO)Cn1cc(C(N)=O)c2c(N)nc(C)nc21)OCC [Compound 53] | > 100 µM | – |
| CCOP(=O)(COC[C@@H]1C=C[C@H](n2cc(C(N)=O)c3c(N)nc(C)nc32)O1)OCC [Compound 67] | > 100 µM | – |
| CCOP(=O)(CC[C@H]1O[C@@H](n2cc(C(N)=O)c3c(N)nc(C)nc32)[C@H](O)[C@@H]1O)OCC [Compound 119] | > 100 µM | – |
| Cc1nc(N)c2c(C(N)=O)cn([C@@H]3O[C@H](CO)[C@@H](F)[C@H]3O)c2n1 [Compound 101] | > 100 µM | – |
| Cc1nc(N)c2c(C#N)cn([C@H]3C=C[C@@H](O)O3)c2n1 [Compound 114] | > 100 µM | – |
| COc1nc(C)nc2c1c(C(N)=O)cn2[C@@H]1O[C@H](COC(=O)[C@@H](NC(=O)OC(C)(C)C)C(C)C)[C@@H](O)[C@@]1(C)O [Compound 61] | > 100 µM | – |
| Cc1nc(N)c2c(C(N)=O)cn([C@@H]3O[C@H](CO)[C@@H](O)[C@H]3O)c2n1 [Compound 38] | > 100 µM | – |
| Cc1nc(Cl)c2ccn([C@H]3CC=CO3)c2n1 [Compound 120] | > 100 µM | – |
| Cc1nc(N)c2cc[nH]c2n1 [Compound 46] | > 100 µM | – |
| Cc1nc(N)c2c(C(N)=O)cn([C@@H]3O[C@H](CO)[C@@H](N=[N+]=[N-])[C@H]3O)c2n1 [Compound 112] | > 100 µM | – |
| Cc1nc(N)c2c(C(N)=O)cn([C@@H]3O[C@H](COP(=O)(N[C@@H](C)C(=O)OC(C)C)Oc4ccccc4)[C@H]4OC(=O)O[C@H]43)c2n1 (some centres unmarked) [Compound 134] | 68.4 µM | – |
| Cc1nc(N)c2c(C(N)=O)cn([C@@H]3O[C@H](CO)[C@@H](O)[C@@H]3O)c2n1 [Compound 9] | 50 µM | – |

| Structure (SMILES) | EC50 [1] | other results |
| --- | --- | --- |
| Cc1nc(N)c2c(C(N)=O)cn([C@@H]3O[C@H](COC(=O)[C@@H](N)Cc4ccccc4)[C@@H](O)[C@H]3O)c2n1 [Compound 5] | – | EC50 (Table 7): 2.2 µM |
| Cc1nc(N)c2c(C(N)=O)cn([C@@H]3O[C@H](O)[C@@H](O)[C@H]3O)c2n1 [Compound 118] | > 100 µM | – |
| COC(=N)c1cn([C@@H]2O[C@H](COS(=O)(=O)CCCCl)[C@H]3OC(C)(C)O[C@H]32)c2nc(C)nc(N)c12 [Compound 103] | > 100 µM | – |
| COC(=N)c1cn([C@@H]2O[C@H](CN=[N+]=[N-])[C@@H](O)[C@H]2O)c2nc(C)nc(N)c12 [Compound 104] | > 100 µM | – |
| Cc1nc(N)c2c(C(N)=O)c[nH]c2n1 [Compound 32] | > 100 µM | – |
| Cc1nc(N)c2c(C(N)=O)cn([C@@H]3O[C@H](CO)[C@H]4OC(C)(C)O[C@H]43)c2n1 [Compound 20] | > 20 µM | – |
| Cc1nc(N)c2c(C(N)=O)cn([C@@H]3O[C@@H]4OCP(=O)(O)O[C@H]4[C@H]3O)c2n1 [Compound 78] | > 100 µM | – |
| Cc1nc(O)c2c(C(N)=O)cn([C@@H]3O[C@H](CO)[C@@H](O)[C@H]3O)c2n1 [Compound 7] | 53.8 µM and 38.4 µM | EC50 (Table 8, N/A = assayed but no EC50 value could be measured, listed as compound 7): > 38 µM |
| Cc1nc(N)c2c(C(N)=O)cn([C@@H]3O[C@H](OCCP(=O)(O)O)[C@@H](O)[C@H]3O)c2n1 [Compound 125] | > 100 µM | – |
| Cc1nc(/N=C/N(C)C)c2c(C(N)=O)cn([C@@H]3O[C@H](CO)[C@@H](O)[C@H]3O)c2n1 [Compound 127] | 5.5 µM | – |
| CCCCCCCCCCCCCCCOCCCOC(=O)C(C)NP(=O)(OCc1ccccc1C)OC[C@H]1O[C@@H](n2cc(C(N)=O)c3c(N)nc(C)nc32)[C@H](O)[C@@H]1O (some centres unmarked) [Compound 142] | > 100 µM | – |
| CCCCCCCCCCCCCCCCOCCCOP(=O)(N[C@@H](C)C(=O)OC(C)C)OC[C@H]1O[C@@H](n2cc(C(N)=O)c3c(N)nc(C)nc32)[C@H](O)[C@@H]1O (some centres unmarked) [Compound 140] | > 100 µM | – |
| Cc1nc(N)c2c(C#N)cn([C@@H]3O[C@H](CO)[C@@H](O)[C@H]3O)c2n1 [Compound 11] | > 121 µM | – |
| COc1ccc2cc([C@@H](C)C(=O)OC[C@H]3O[C@@H](n4cc(C(N)=O)c5c(N)nc(C)nc54)[C@@H]4OC(C)(C)O[C@@H]43)ccc2c1 [Compound 65] | > 100 µM | – |
| Cc1nc(N)c2c(C(N)=O)cn([C@@H]3O[C@H](CO)[C@@H](N)[C@H]3O)c2n1 [Compound 113] | > 100 µM | – |
| Cc1nc(N)c2c(C#N)cn([C@@H]3O[C@@](CO)(N=[N+]=[N-])[C@@H](O)[C@H]3O)c2n1 [Compound 106] | > 100 µM | – |
| COC(=O)C(OC[C@H]1O[C@@H](n2cc(C#N)c3c(N)nc(C)nc32)[C@H](O)[C@@H]1O)P(=O)(OC)OC (some centres unmarked) [Compound 86] | > 100 µM | – |
| Cc1nc(N)c2c(C(N)=O)cn([C@@H]3O[C@H](COCP(=O)(O)O)[C@@H](O)[C@H]3O)c2n1 [Compound 23] | > 100 µM | – |
| Cc1nc(N)c2c(C(N)=O)cn(C3(C)O[C@H](COC(=O)[C@@H](N)C(C)C)[C@@H](O)[C@H]3O)c2n1 (some centres unmarked) [Compound 62] | > 100 µM | – |
| CCCCCCCCCCCCCCCCOCCCOP(=O)(O)COC[C@H]1O[C@@H](n2cc(C(N)=O)c3c(N)nc(C)nc32)[C@H](O)[C@@H]1O [Compound 24] | > 20 µM | – |
| Cc1nc(NN)c2c(C(N)=O)cn([C@@H]3O[C@H](CO)[C@@H](O)[C@H]3O)c2n1 [Compound 95] | > 100 µM | – |

| Structure (SMILES) | EC50 [1] | other results |
| --- | --- | --- |
| Cc1nc(Cl)c2c(C#N)cn([C@@H]3O[C@H](O)[C@@H](O)[C@H]3O)c2n1 [Compound 117] | > 100 µM | – |
| Cc1nc(N)c2c(C(N)=O)cn([C@@H]3O[C@H](COP(=O)(O)N[C@@H](C)C(=O)OC(C)C)[C@@H](O)[C@H]3O)c2n1 [Compound 141] | – | EC50 (Table 7): 3.2 µM |
| Cc1nc(N)c2c(C(N)=O)cn(C[C@@H](C)OCP(=O)(O)O)c2n1 [Compound 59] | > 100 µM | – |
| Cc1nc(N)c2c(C(N)=O)cn([C@@H]3O[C@H](CO)[C@@H](O)[C@@]3(C)O)c2n1 [Compound 87] | > 100 µM | – |
| NC(=O)c1cn([C@@H]2O[C@H](CO)[C@@H](O)[C@H]2O)c2nc(C(F)(F)F)nc(N)c12 [Compound 26] | > 100 µM | – |
| Cc1nc(N(C)C)c2c(C(N)=O)cn([C@@H]3O[C@H](CO)[C@@H](O)[C@H]3O)c2n1 [Compound 37] | > 100 µM | – |
| Cc1nc(N)c2c(C(N)=O)cn([C@@H]3O[C@H](CO)[C@@H](O)[C@H]3O)c2[n+]1[O-] [Compound 8] | 23.6 µM | – |
| CCOP(=O)(CO[C@H]1O[C@@H](n2cc(C(N)=O)c3c(N)nc(C)nc32)[C@H](O)[C@@H]1O)OCC [Compound 73] | > 100 µM | – |
| Cc1nc(N)c2c(C(N)=O)cn([C@@H]3O[C@H](COC(=O)[C@H](CC(C)C)NC(=O)OCC4c5ccccc5-c5ccccc54)[C@@H](O)[C@H]3O)c2n1 [Compound 76] | – | EC50 (Table 7): 16.4 µM |
| COC(=O)[C@H](C)NP(=O)(OC[C@H]1O[C@@H](n2cc(C(N)=O)c3c(N)nc(C)nc32)[C@H](O)[C@@H]1O)Oc1ccccc1 (some centres unmarked) [Compound 111] | – | EC50 (Table 7): 21 µM |
| NC(=O)c1cn([C@@H]2O[C@H](CO)[C@@H](O)[C@H]2O)c2nc(N)nc(N)c12 [Compound 83] | > 100 µM | – |
| CCOP(=O)(COC[C@H]1O[C@@H](n2cc(C(N)=O)c3c(N)nc(C)nc32)[C@H](O)[C@@H]1O)OCC [Compound 25] | > 100 µM | – |
| Cc1nc(N)c2c(C(N)=O)cn([C@@H]3O[C@H](CO)[C@@H](O)[C@H]3N=[N+]=[N-])c2n1 [Compound 57] | > 100 µM | – |
| CCOP(=O)(CCO[C@H]1O[C@@H](n2cc(C#N)c3c(Cl)nc(C)nc32)[C@H](O)[C@@H]1O)OCC [Compound 123] | > 100 µM | – |
| CCOP(=O)(COC[C@H]1O[C@@H](n2cc(C(N)=O)c3c(N)nc(C)nc32)[C@@H]2OC(C)(C)O[C@@H]21)OCC [Compound 21] | > 100 µM | – |
| CCCCCCCCCCCCCCCCOCCCOC(=O)[C@H](C)NP(=O)(O)OC[C@H]1O[C@@H](n2cc(C(N)=O)c3c(N)nc(C)nc32)[C@H](O)[C@@H]1O [Compound 143] | – | EC50 (Table 7): 26.3 µM |
| CCCCCCCCCCCCCCCCOCCCOP(=O)(O)CO[C@H](CO)Cn1cc(C(N)=O)c2c(N)nc(C)nc21 [Compound 56] | 75.3 µM | – |
| CCCCCCCCC(=O)Oc1ccc(COP(=O)(OCc2ccc(OC(=O)CCCCCCCC)cc2)OP(=O)(O)OC[C@H]2O[C@@H](n3cc(C(N)=O)c4c(N)nc(C)nc43)[C@H](O)[C@@H]2O)cc1 [Compound 145] | – | EC50 (Table 7): 7.4 µM |
| Cc1nc(N)c2c(C(=O)N(C)C)cn([C@@H]3O[C@H](CO)[C@@H](O)[C@H]3O)c2n1 [Compound 41] | > 100 µM | – |
